Measured values taken from PMC5538713, “RORγt and RORα signature genes in human Th17 cells” (PLoS ONE, 2017).
Read-outs that look alike come from different tables or passages of the source.

Legend:
[1] = molecular target: T1, RORα LBD (Homo sapiens, UniProt P35398); assay: ThermoFluor binding assay, RORα LBD
T1 construct: made in house; host or cells: E. coli BL21DE3 GOLD, pET24a
T1 sequence (P35398 304-556 isoform P35398-1): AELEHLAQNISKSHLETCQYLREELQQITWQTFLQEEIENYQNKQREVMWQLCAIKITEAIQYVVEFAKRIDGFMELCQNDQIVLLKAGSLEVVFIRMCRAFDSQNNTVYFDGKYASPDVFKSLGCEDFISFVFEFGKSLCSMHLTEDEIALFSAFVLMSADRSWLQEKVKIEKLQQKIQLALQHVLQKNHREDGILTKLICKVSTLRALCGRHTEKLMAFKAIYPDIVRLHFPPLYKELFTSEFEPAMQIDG
Procedure: (§1) Recombinant human RORγ, RORα and RORβ LBD proteins were prepared for ThermoFlour binding assay. The nucleotide sequences encoding the ligand binding domains (LBD) of human RORγ (Genbank accession no. NP005051, amino acid 237–497), RORα (Genbank accession no. NP599022, amino acid 304–556), and RORβ (Genbank accession no. NP008845, amino acid 201–452) were PCR-amplified and cloned into pET24a (Novagen) for expression in bacteria. All recombinant proteins contained an additional amino acid sequence of […] at the N-terminal of LBD. After transformation of the bacteria strain BL21DE3 GOLD (Agilent) with the plasmids, 10 to 20 L cultures were grown to 1 OD and recombinant protein expression was induced overnight at 16°C with 0.2mM isopropyl-beta-D-thiogalactopyranoside (IPTG) (Corning). […]. His-tagged proteins were collected with Ni-NTA resin (Qiagen) and purified with a HiTrap Q HP column (GE Life Sciences) eluted with a 40 CV gradient of 50-500mM NaCl.
(§2) The ThermoFluor® assay was established to measure the change in protein stability upon binding with compounds. 1-Anilinonaphthalene-8-Sulfonic Acid (1,8-ANS) (Invitrogen) was used as a fluorescent dye to label the test proteins. The assay was performed in polypropylene PCR microplates (TF-0384/k, Abgene) with a final assay of 3 μL reaction mixture per well overlaid with 1 μL silicone oil (Sigma-Aldrich). Assay plates were robotically loaded onto a thermostatically controlled PCR-type thermal block and then heated at a ramp-rate of 1°C/min. Fluorescence emission was initiated by continuous illumination with UV light (LC6, Hamamatsu) via fiber optic with a band-pass filter (380–400 nm) and detected with a CCD camera (Sensys, Roper Scientific) filtered to detect signal of 500 ± 25 nm. Reference wells contained recombinant LBD of RORγt, RORα or RORβ alone, and the assay conditions were as follows: 0.065 mg/mL RORγt LBD, 60 μM 1,8-ANS, 100 mM HEPES pH 7.0, 10 mM NaCl, 2.5 mM GSH, 0.002% Tween- 20; 0.1 mg/mL RORα, 70 μM 1,8-ANS, 25 mM HEPES pH 7.0, 50 mM NaCl, 0.001% Tween-20; 0.08 mg/mL RORβ, 60 μM 1,8-ANS, 50 mM HEPES pH 7.0, 100 mM NaCl, 0.001% Tween-20. All 3 assays were performed in the absence and in the presence of 100 μM co-activator peptide SRC1 ([…], England Peptide custom synthesis). The binding affinity of test compounds was estimated as described previously.

[2] = molecular target: T2, RORβ LBD (Homo sapiens, UniProt Q92753); assay: ThermoFluor binding assay, RORβ LBD
T2 construct: made in house; host or cells: E. coli BL21DE3 GOLD, pET24a
T2 sequence (Q92753 201-452 isoform Q92753-1): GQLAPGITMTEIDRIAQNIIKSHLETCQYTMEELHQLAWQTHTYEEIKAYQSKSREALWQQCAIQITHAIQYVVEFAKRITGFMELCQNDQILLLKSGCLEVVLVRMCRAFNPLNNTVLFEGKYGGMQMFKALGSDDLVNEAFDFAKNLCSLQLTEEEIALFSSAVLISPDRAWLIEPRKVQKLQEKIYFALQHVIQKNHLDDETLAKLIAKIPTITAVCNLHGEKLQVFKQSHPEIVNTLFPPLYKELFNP
Procedure: as §1, §2

[3] = tested on: human CD4 T cells, IL-17A production; assay: Th17 differentiation assay (IL-17A production); type: cell-based; details: 72 h
[4] = tested on: GABA; assay: Cerep selectivity panel; type: binding
[5] = tested on: CI Channel; assay: Cerep selectivity panel; type: binding
[6] = molecular target: T3, M2 (h) (Homo sapiens, UniProt P08172); assay: Cerep selectivity panel; type: binding
T3 construct: purchased Cerep
T3 sequence (P08172 1-466): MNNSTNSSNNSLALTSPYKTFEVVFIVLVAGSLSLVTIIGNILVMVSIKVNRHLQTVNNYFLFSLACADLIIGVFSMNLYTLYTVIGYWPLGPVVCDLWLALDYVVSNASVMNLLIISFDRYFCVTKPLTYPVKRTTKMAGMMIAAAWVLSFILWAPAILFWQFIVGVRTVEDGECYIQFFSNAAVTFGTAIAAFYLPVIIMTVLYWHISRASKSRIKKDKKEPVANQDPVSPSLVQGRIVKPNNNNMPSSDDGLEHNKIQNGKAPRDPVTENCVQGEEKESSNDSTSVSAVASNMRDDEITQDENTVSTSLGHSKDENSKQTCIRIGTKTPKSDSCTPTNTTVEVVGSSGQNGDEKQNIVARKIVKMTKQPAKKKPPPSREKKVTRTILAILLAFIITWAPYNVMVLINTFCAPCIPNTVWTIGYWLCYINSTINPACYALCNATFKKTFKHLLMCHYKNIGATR
Procedure: Supplementary file pone.0181868.s003.docx: S3 Table Selectivity profile of RORγt inverse agonists A, B, C and D. Compounds were evaluated at 1 μM and 10 μM in a panel of assays against 50 receptors, ion channels and transporters (Profile service by Cerep Inc.). (DOCX) Click here for additional data file.
S3 Table. RORɣt inverse agonists A, B, C and D were evaluated at 1 µM and 10 µM in a panel of assays against 50 receptors, ion channels and transporters (Profile service by Cerep Inc.).

[7] = recombinant human LBD, read-out: ThermoFlour Binding Assay (Kd, nM) RORα
[8] = recombinant human LBD, read-out: ThermoFlour Binding Assay (Kd, nM) RORβ
[9] = Homo sapiens, CD4+ T, read-out: Th17 Differentiation (IL-17A production) (IC50, nM)

SMILES	Kd [1, 7]	Kd [2, 8]	IC50 ([3]; human CD4 T cells, 3 days, read-out: Th17 Differentiation (IL-17A production) (IC50))	% Inhibition at 1µM [4]	% Inhibition at 1µM [5]	% Inhibition at 10µM [5]	Kd [1]	Kd [2]	IC50 [3, 9]	inhibition at 1 µM [6]	inhibition at 10 µM [6]	% Inhibition at 10µM ([4]; 10 µM)
COc1nc2ccc([C@@](O)(c3ccc(C)nc3C)c3cnnn3C)cc2c(Cl)c1Cc1ccc(C(F)(F)F)cc1 [compound A]	166 nM	4940 nM	3.7 nM	8%	26%	87%	–	–	–	–	–	–
CN(C)c1nc2ccc(C(O)(c3ccncc3)c3cncn3C)cc2c(Cl)c1-c1ccccc1 (stereo not shown) [compound D]	–	–	–	–	–	–	192 nM	1240 nM	22.2 nM	10%	47%	–
COc1nc2ccc([C@@](O)(c3ccccc3)C3CCN(C(C)=O)CC3)cc2c(Cl)c1Cc1ccc(-n2cccn2)cc1 [C]	> 70000 nM	> 70000 nM	–	–	16%	45%	–	–	18.3 nM	–	–	12%
COc1nc2ccc([C@](O)(c3ccc(Cl)cc3)c3cncn3C)cc2c(Cl)c1Cc1ccc(-n2cccn2)cc1 [B]	–	–	–	9%	24%	66%	> 19600 nM	> 29900 nM	84.5 nM	16%	23%	–
